Test results: patent US9242984B2, “Pyrazolyl derivatives as Syk inhibitors” (Merck Sharp & Dohme Corp., priority 2012, dated 2016)
pIC50: −log10 of the molar value.

What follows are molecules tested against T1, recombinant human Syk (GST-hSyk fusion protein) (Homo sapiens, UniProt P43405) (assay: Homogeneous Time-Resolved Fluorescence (HTRF) assay for the recombinant human Syk enzyme). Details: 10-dose titration, 25 μM ATP; read-out: rhSYK IC50.
T1 construct: purchased Carna Biosciences 08-176
Type: biochemical
Method in brief: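 IC50 came from a four-parameter fit over ten doses, 10 μM to 0.508 nM, with HTRF read-out (Eu-anti-pTyr antibody, SA-APC, EDTA stop, 30 min). The enzyme, 5 pM GST-hSyk, met compound for 10 min, then phosphorylated 250 nM biotin-peptide with 25 μM ATP and 5 mM Mg for 45 min at room temperature, pH 7.5.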
A pIC50 of 8.77 was found for `Cc1cc(Nc2cc(C(F)(F)F)ccn2)nc(-c2cnn(CC(C)(O)CC#N)c2)c1` (single isomer, unassigned) [Example 20.1, (R or S)-3-Hydroxy-3-methyl-4-(4-(4-methyl-6-((4-(trifluoromethyl)pyridin-2-yl)amino)pyridin-2-yl)-1H-pyrazol-1-yl)butanenitrile] in this work. A pIC50 of 8.96 was found for `Cc1cc(Nc2nccc(C(F)(F)F)n2)cc(-c2cnn(CC(O)C(N)=O)c2)c1` (single isomer, unassigned) [Example 7.1, (R or S)-2-hydroxy-3-[4-(3-methyl-5-{[4-(trifluoromethyl)pyrimidin-2-yl]amino}phenyl)-1H-pyrazol-1-yl]propanamide] in this work. A pIC50 of 8.89 was found for `Cc1cc(Nc2nccc(C(F)F)n2)cc(-c2cnn(C(C)C(C)(O)CO)c2)c1` (single isomer, unassigned) [Example 22.1, 3-(4-(3-((4-(Difluoromethyl)pyrimidin-2-yl)amino)-5-methylphenyl)-1H-pyrazol-1-yl)-2-methylbutane-1,2-diol] in this work. A pIC50 of 8.57 was found for `Cc1cc(Nc2nccc(C(F)F)n2)cc(-c2cnn(C[C@H](O)C(N)=O)c2)c1` [Example 16, (2S)-3-[4-(3-{[4-(difluoromethyl)pyrimidin-2-yl]amino}-5-methylphenyl)-1H-pyrazol-1-yl]-2-hydroxypropanamide] in this work.

Same assay, conditions: IC50 class; 10-dose titration, 25 μM ATP; read-out: rhSYK Activity
A pIC50 of 6.00 to 7.00 was found for `Cc1cc(Nc2nccc(C(F)(F)F)n2)cc(-c2cnn(C[C@H](O)C(=O)NCCCN3CCCC3=O)c2)c1` [Example 6.10, (2S)-2-hydroxy-3-[4-(3-methyl-5-{[4-(trifluorometh-yl)pyrimidin-2-yl]amino}phenyl)-1H-pyrazol-1-yl]-N-[3-(2-oxopyrrolidin-1-yl)propyl]propan-amide] in this work. For `Cc1cc(Nc2nccc(C(F)F)n2)cc(-c2cnn(CC(C)(O)C(C)(C)O)c2)c1` (centres unmarked) [Example 21.7, 1-[4-(3-{[4-(difluoromethyl)pyrimidin-2-yl]amino}-5-methylphenyl)-1H-pyrazol-1-yl]-2,3-dimethylbutane-2,3-diol], the pIC50 was ≥ 7.00. `O=C1NCC(Cn2cc(-c3cccc(Nc4nccc(C(F)F)n4)c3)cn2)O1` (centres unmarked) [Example 2.66, 5-{[4-(3-{[4-(difluoromethyl)pyrimidin-2-yl]amino}phenyl)-1H-pyrazol-1-yl]methyl}-1,3-oxazolidin-2-one] was tested, and the pIC50 was ≥ 7.00. With `Cc1cc(Nc2cc(C(F)(F)F)ccn2)nc(-c2cnn(C[C@H](O)C(N)=O)c2)c1` [Example 6.15, (2S)-2-hydroxy-3-[4-(4-methyl-6-{[4-(trifluoro-methyl)-pyridin-2-yl]amino}-pyridin-2-yl)-1H-pyrazol-1-yl]-propanamide] the pIC50 was ≥ 7.00. In the case of `Cc1cc(Nc2nccc(C(F)F)n2)cc(-c2cnn(CC(C)(C)NC(=O)C3CC3)c2)c1` [Example 26.2, N-{2-[4-(3-{[4-(difluoromethyl)pyrimidin-2-yl]amino}-5-methylphenyl)-1H-pyrazol-1-yl]-1,1-dimethylethyl}cyclopropanecarboxamide], the pIC50 was ≥ 7.00. With `Cc1cc(Nc2cc(C(F)(F)F)ccn2)nc(-c2cnn(CC(C)(O)CC#N)c2)c1` (single isomer, unassigned) [Example 20.1, (R or S)-3-Hydroxy-3-methyl-4-(4-(4-methyl-6-((4-(trifluoromethyl)pyridin-2-yl)amino)pyridin-2-yl)-1H-pyrazol-1-yl)butanenitrile] the pIC50 was ≥ 7.00. With `Cc1cc(Nc2nccc(C(F)(F)F)n2)cc(-c2cnn(CC(O)C(N)=O)c2)c1` (single isomer, unassigned) [Example 7.1, (R or S)-2-hydroxy-3-[4-(3-methyl-5-{[4-(trifluoromethyl)pyrimidin-2-yl]amino}phenyl)-1H-pyrazol-1-yl]propanamide] the pIC50 was ≥ 7.00. `Cc1cc(Nc2nccc(C(F)F)n2)cc(-c2cnn(CC3OC(=O)NC3CO)c2)c1` (single isomer, unassigned) [Example 33.2, 5-{[4-(3-{[4-(difluoromethyl)pyrimidin-2-yl]amino}-5-methylphenyl)-1H-pyrazol-1-yl]methyl}-4-(hydroxymethyl)-1,3-oxazolidin-2-one] was tested, and the pIC50 was ≥ 7.00. For `Cc1cc(Nc2nccc(C(F)F)n2)cc(-c2cnn(C(C)C3CNC(=O)O3)c2)c1` (centres unmarked) [Example 3.91, 5-{1-[4-(3-{[4-(difluoromethyl)pyrimidin-2-yl]amino}-5-methylphenyl)-1H-pyrazol-1-yl]ethyl}-1,3-oxazolidin-2-one], the pIC50 was ≥ 7.00. With `Cc1cc(Nc2nccc(C(F)(F)F)n2)cc(-c2cnn(C[C@H](O)CC#N)c2)c1` [Example 3.2, (3R)-3-hydroxy-4-[4-(3-methyl-5-{[4-(trifluoromethyl)-pyrimidin-2-yl]amino}phenyl)-1H-pyrazol-1-yl]-butanenitrile] the pIC50 was ≥ 7.00. With `Cc1cc(Nc2nccc(C(F)(F)F)n2)cc(-c2cnn(CC(O)C(F)(F)F)c2)c1` (racemic) [Example 3.43, 1,1,1-trifluoro-3-[4-(3-methyl-5-{[4-(trifluoromethyl)pyrimidin-2-yl]amino}phenyl)-1H-pyrazol-1-yl]propan-2-ol] the pIC50 was ≥ 7.00. In the case of `Cc1cc(Nc2nccc(C(F)F)n2)cc(-c2cnn(CC3(C)CNC(=O)C3)c2)c1` (centres unmarked) [Example 2.80, 4-{[4-(3-{[4-(difluoromethyl)pyrimidin-2-yl]amino}-5-methylphenyl)-1H-pyrazol-1-yl]methyl}-4-methylpyrrolidin-2-one], the pIC50 was ≥ 7.00. With `COC(=O)c1ccc(C(O)Cn2cc(-c3cc(C)cc(Nc4nccc(C(F)(F)F)n4)c3)cn2)cc1` (centres unmarked) [Example 3.54, methyl 4-{1-hydroxy-2-[4-(3-methyl-5-{[4-(trifluoromethyl)pyrimidin-2-yl]amino}phenyl)-1H-pyrazol-1-yl]ethyl}benzoate] the pIC50 was ≥ 7.00. With `Cc1cc(Nc2nccc(OCCO)n2)cc(-c2cnn(C3CCC(C(N)=O)CC3)c2)c1` (centres unmarked) [Example 8.5, 4-[4-(3-{[4-(2-hydroxy-ethoxy)pyrimidin-2-yl]amino}-5-methylphenyl)-1H-pyrazol-1-yl]-cyclo-hexanecarboxamide] the pIC50 was ≥ 7.00. A pIC50 of 6.00 to 7.00 was found for `Cc1cc(Nc2nccc(C(F)(F)F)n2)cc(-n2cc(C3(O)CCC(C(=O)O)C(C)(C)C3)cn2)c1` (centres unmarked) [Example 19.14, 4-hydroxy-2,2-dimethyl-4-[1-(3-methyl-5-{[4-(trifluoromethyl)pyrimidin-2-yl]amino}phenyl)-1H-pyrazol-4-yl]cyclohexanecarboxylic acid] in this work. `Cc1cc(Nc2nccc(C(F)(F)F)n2)cc(-c2cnn(C[C@@H](O)CO)c2)c1` [Example 3.41, (2R)-3-[4-(3-methyl-5-{[4-(trifluoromethyl)pyrimidin-2-yl]amino}-phenyl)-1H-pyrazol-1-yl]propane-1,2-diol] was tested, and the pIC50 was ≥ 7.00. `Cc1cc(Nc2nccc(C(F)F)n2)cc(-c2cnn(C(C)C(C)(O)CO)c2)c1` (single isomer, unassigned) [Example 22.1, 3-(4-(3-((4-(Difluoromethyl)pyrimidin-2-yl)amino)-5-methylphenyl)-1H-pyrazol-1-yl)-2-methylbutane-1,2-diol] was tested, and the pIC50 was ≥ 7.00. For `Cc1cc(Nc2nccc(C(F)(F)F)n2)cc(-c2cnn(C[C@@]3(O)C[C@@H](C)O[C@@H](C)C3)c2)c1` [Example 12.8, meso (2R,4S,6S)-2,6-dimethyl-4-{[4-(3-methyl-5-{[4-(trifluoro-methyl)pyrimidin-2-yl]amino}phenyl)-1H-pyrazol-1-yl]methyl}-tetrahydro-2H-pyran-4-ol], the pIC50 was ≥ 7.00. In the case of `Cc1cc(Nc2nccc(C(F)F)n2)cc(-c2cnn(C(C[C@@H](C)O)[C@H](C)O)c2)c1` (stereo in doubt) [Example 2.50, 3-[4-(3-{[4-(difluoromethyl)pyrimidin-2-yl]amino}-5-methylphenyl)-1H-pyrazol-1-yl]hexane-2,5-diol], the pIC50 was ≥ 7.00. A pIC50 of 6.00 to 7.00 was found for `Cc1cc(Nc2nccc(C(F)(F)F)n2)cc(-n2cc(C3(O)CCC(C(=O)O)C(C)(C)C3)cn2)c1` (centres unmarked) [Example 19.15, 4-hydroxy-2,2-dimethyl-4-[1-(3-methyl-5-{[4-(trifluoromethyl)pyrimidin-2-yl]amino}phenyl)-1H-pyrazol-4-yl]cyclohexanecarboxylic acid] in this work. In the case of `Cc1cc(Nc2nccc(C(F)F)n2)cc(-c2cnn(C(C[C@@H](C)O)[C@H](C)O)c2)c1` (stereo in doubt) [Example 2.54, 3-[4-(3-{[4-(difluoromethyl)pyrimidin-2-yl]amino}-5-methylphenyl)-1H-pyrazol-1-yl]hexane-2,5-diol], the pIC50 was ≥ 7.00. In the case of `Cc1cc(Nc2nccc(C(F)F)n2)cc(-c2cnn(CC(O)COCC(F)(F)F)c2)c1` (centres unmarked) [Example 5.31, 1-[4-(3-{[4-(difluoromethyl)pyrimidin-2-yl]amino}-5-methylphenyl)-1H-pyrazol-1-yl]-3-(2,2,2-trifluoroethoxy)propan-2-ol], the pIC50 was ≥ 7.00. In the case of `Cc1cc(Nc2nccc(C(F)(F)F)n2)cc(-c2cnn(CCOCCO)c2)c1` [Example 3.19], the pIC50 was ≥ 7.00. `Cc1cc(Nc2nccc(C(F)(F)F)n2)cc(-c2cnn(Cc3noc(C)n3)c2)c1` [Example 3.10, N-(3-methyl-5-{1-[(5-methyl-1,2,4-oxadiazol-3-yl)methyl]-1H-pyrazol-4-yl}phenyl)-4-(trifluoromethyl)-pyrimidin-2-amine] was tested, and the pIC50 was ≥ 7.00. With `Cc1cc(Nc2nccc(C(F)(F)F)n2)cc(-c2cnn(CCCC(=O)O)c2)c1` [Example 3.50, 4-[4-(3-methyl-5-{[4-(trifluoromethyl)-pyrimidin-2-yl]amino}-phenyl)-1H-pyrazol-1-yl]butanoic acid] the pIC50 was ≥ 7.00. In the case of `Cc1cc(Nc2nccc(C(F)F)n2)cc(-c2cnn(C[C@H](O)C(N)=O)c2)c1` [Example 16, (2S)-3-[4-(3-{[4-(difluoromethyl)pyrimidin-2-yl]amino}-5-methylphenyl)-1H-pyrazol-1-yl]-2-hydroxypropanamide], the pIC50 was ≥ 7.00. `Cc1cc(Nc2nccc(OCCO)n2)cc(-c2cnn(C[C@H](O)C(N)=O)c2)c1` [Example 6.2, (2S)-2-hydroxy-3-[4-(3-{[4-(2-hydroxyethoxy)pyrimidin-2-yl]amino}-5-methylphenyl)-1H-pyrazol-1-yl]propanamide] was tested, and the pIC50 was ≥ 7.00. With `Cc1cc(Nc2nccc(C)n2)cc(-c2cnn(CC3CNC(=O)O3)c2)c1` (centres unmarked) [Example 2.18, 5-[(4-{3-methyl-5-[(4-methylpyrimidin-2-yl)amino]phenyl}-1H-pyrazol-1-yl)methyl]-1,3-oxazolidin-2-one] the pIC50 was ≥ 7.00. For `Cc1cc(Nc2nccc(C(F)F)n2)cc(-c2cnn(C(C[C@H](C)O)[C@H](C)O)c2)c1` (stereo in doubt) [Example 2.51, 3-[4-(3-{[4-(difluoromethyl)pyrimidin-2-yl]amino}-5-methylphenyl)-1H-pyrazol-1-yl]hexane-2,5-diol], the pIC50 was ≥ 7.00. In the case of `Cc1cc(Nc2nccc(C(F)(F)F)n2)cc(-c2cnn(C[C@@H](O)C(N)=O)c2)c1` [Example 8.13, (2r)-2-hydroxy-3-[4-(3-methyl-5-{[4-(trifluorometh-yl)pyrimidin-2-yl]amino}phenyl)-1H-pyrazol-1-yl]propanamide], the pIC50 was ≥ 7.00. With `COc1nc(Nc2cc(C)cc(-c3cnn(C[C@@H](O)C(=O)O)c3)c2)ncc1Cl` [Example 11.15, (2R)-3-(4-{3-[(5-chloro-4-methoxy-pyrimidin-2-yl)amino]-5-methyl-phenyl}-1H-pyrazol-1-yl)-2-hydroxy-propanoic acid] the pIC50 was ≥ 7.00.
